Source: patent publication US10973820B2, “Compounds for treatment of diseases related to DUX4 expression” (Facio Intellectual Property B.V., priority 2017, dated 2021)
Where two headings read alike, the source gives them in different places.

Assays:
DUX4 [1] = experiment: DUX4 repression, high-content immunocytochemistry assay in primary FSHD myotubes; format: cell-based, human; settings: for EC50: Homo sapiens, Myotube, read-out: EC50 DUX4
From the text: A quantitative assay readout was developed based on script-based image analysis. […] To analyse the images, an automated script was developed, enabling the detection of nuclei, myotube borders and DUX4 signals, with the script also detecting artefacts to reduce false positive signals. The script enabled multiple validated readouts including the number of DUX4 positive nuclei and nuclei clusters, the fusion index, myotube area, myotube width and myotube skeleton length (see FIG. 2). Additionally, the total nuclei count was included as a measure of cell loss or compound toxicity.
A compound library containing approximately 5000 annotated compounds was screened in the high-content assay. For this purpose, primary myoblasts were seeded in 384 well plates after which the growth medium was replaced with differentiation medium. After 3 days of differentiation, cells were treated with library compounds (in duplicate on different screening plates) for 15 h, after which they were fixed and stained with antibodies against DUX4, antibodies against myosin heavy chain (MHC), and with DAPI (4′,6-diamidino-2-phenylindole). Script-based analysis provided readouts for DUX4 expression (count of DUX4-positive nuclei or DUX4 intensity) and for potential toxicity (fusion index and nuclei count).
Compounds were incubated with primary FSHD cells for 15 hours, as indicated by the arrow in FIG. 4A.
Compounds are administered either 15 h before fixation, resembling the original screening protocol, or 72 h before fixation (grey arrow). In the latter case, compounds are present during the whole differentiation process.

DUX4 [2] = settings: immortalised differentiated myotube cultures; cited from earlier work
pancreatic tumor cell = settings: in vitro and in vivo; cited from earlier work
p38 = p38 (Homo sapiens, UniProt Q16539); experiment: inhibition of p38 by CK1 inhibitors; format: biochemical; settings: p38α
p38, sequence (Q16539 whole entry): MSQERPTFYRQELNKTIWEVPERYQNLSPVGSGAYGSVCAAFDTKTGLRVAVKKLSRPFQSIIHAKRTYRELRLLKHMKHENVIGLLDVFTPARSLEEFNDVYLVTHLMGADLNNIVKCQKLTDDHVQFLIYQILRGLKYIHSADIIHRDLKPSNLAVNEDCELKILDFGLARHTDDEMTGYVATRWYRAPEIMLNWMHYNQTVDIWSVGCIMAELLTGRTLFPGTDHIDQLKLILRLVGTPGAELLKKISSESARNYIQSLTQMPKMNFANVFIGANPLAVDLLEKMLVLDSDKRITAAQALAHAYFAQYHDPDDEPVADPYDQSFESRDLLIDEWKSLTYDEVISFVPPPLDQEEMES

CK1 α = CK1 α (Homo sapiens, UniProt P48729); experiment: inhibition of CK1 α by CK1 inhibitors; format: biochemical
CK1 α, sequence (P48729 whole entry): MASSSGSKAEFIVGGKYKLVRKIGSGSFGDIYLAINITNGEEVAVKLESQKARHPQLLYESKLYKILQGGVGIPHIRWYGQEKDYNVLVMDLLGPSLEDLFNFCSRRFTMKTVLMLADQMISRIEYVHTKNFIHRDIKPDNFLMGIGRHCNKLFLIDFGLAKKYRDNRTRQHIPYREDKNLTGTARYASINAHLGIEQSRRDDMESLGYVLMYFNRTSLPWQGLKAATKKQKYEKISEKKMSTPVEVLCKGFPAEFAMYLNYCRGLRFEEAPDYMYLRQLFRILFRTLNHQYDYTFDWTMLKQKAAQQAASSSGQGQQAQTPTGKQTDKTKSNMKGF
From the text: IC50 values for CK1 can be determined using any method known in the art, for example as described in WO2011051858, WO2015119579, EP2949651, or US2005/0131012. Suitable assays can use a peptide substrate and a readout method, for example using the Kinase-Glo assay (Promega, part # V672A).

CK1 ε = CK1 ε (Homo sapiens, UniProt P49674); experiment: inhibition of CK1 ε by CK1 inhibitors; format: biochemical
CK1 ε, sequence (P49674 whole entry): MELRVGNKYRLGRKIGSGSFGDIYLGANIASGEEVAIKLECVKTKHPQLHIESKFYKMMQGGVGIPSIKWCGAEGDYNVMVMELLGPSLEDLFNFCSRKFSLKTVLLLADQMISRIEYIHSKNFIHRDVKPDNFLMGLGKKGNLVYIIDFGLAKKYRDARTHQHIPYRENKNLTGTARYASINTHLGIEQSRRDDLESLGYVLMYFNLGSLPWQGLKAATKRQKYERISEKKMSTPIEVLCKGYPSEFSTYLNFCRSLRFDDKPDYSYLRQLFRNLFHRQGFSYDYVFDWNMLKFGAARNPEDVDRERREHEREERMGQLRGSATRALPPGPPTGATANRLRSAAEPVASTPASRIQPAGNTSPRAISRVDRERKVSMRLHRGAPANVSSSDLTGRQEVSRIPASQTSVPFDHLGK
From the text: (§1) Suitable assays can use a peptide substrate and a readout method, for example using the Kinase-Glo assay (Promega, part # V672A).

CK1 δ = CK1 δ (Homo sapiens, UniProt P48730); experiment: inhibition of CK1 δ by CK1 inhibitors; format: biochemical
CK1 δ, sequence (P48730 whole entry): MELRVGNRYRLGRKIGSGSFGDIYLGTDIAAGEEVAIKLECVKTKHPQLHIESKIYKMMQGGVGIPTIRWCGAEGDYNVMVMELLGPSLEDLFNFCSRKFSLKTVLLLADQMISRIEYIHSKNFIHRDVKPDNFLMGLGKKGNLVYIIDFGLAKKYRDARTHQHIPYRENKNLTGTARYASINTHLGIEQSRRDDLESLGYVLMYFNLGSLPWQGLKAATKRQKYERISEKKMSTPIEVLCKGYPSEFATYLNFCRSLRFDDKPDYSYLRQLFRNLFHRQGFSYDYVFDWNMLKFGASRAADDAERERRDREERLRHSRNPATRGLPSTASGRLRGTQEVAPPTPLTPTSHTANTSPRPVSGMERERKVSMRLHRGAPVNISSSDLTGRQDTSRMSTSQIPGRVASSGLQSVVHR
From the text: as §1

[3] = primary FSHD cells, compound incubation 15 hours

EC50 (DUX4 [1]; [3])	IC50 (p38)	IC50 (CK1 α)	IC50 (CK1 ε)	IC50 (CK1 δ)	Compound	effect on DUX4 expression (DUX4 [1]; irrespective of treatment time (15 h or 72 h))	expression of DUX4 (DUX4 [2])	pancreatic tumor cell growth (pancreatic tumor cell)	EC50 (DUX4 [1]; 15 h)
					COc1cc(OC)c2c(=O)[nH]c(-c3cc(C)c(OCCO)c(C)c3)nc2c1 [RVX-208, reference compound]	did not show any effect on DUX4 expression	can inhibit the expression of DUX4		
					COc1cc(OC)c(C=C2C(O)=Nc3ccccc32)c(OC)c1 [IC261]			reduces pancreatic tumor cell growth	
470 nM	32 nM	320 nM			Nc1nccc(-c2c(-c3ccc(F)cc3)ncn2C2CCCCC2)n1 [PF-670462, reference compound]				
10 nM	25 nM	33 nM	16 nM	22 nM	Fc1ccc(-c2nc3ccc(N4CCNCC4)nn3c2-c2ccncc2)cc1 [Compound H]				
1410 nM	569 nM	644 nM	51.6 nM	33.1 nM	Cn1cc(-c2ccnc3c2C(=O)OC3)c(-c2ccc(F)cc2)n1 [Compound D]				
2590 nM	677 nM	561 nM	72 nM	18 nM	Cn1cc(-c2ccnc3c2C(=O)N(C2CCOCC2)C3)c(-c2ccc(F)cc2)n1 [Compound F]				
820 nM	74 nM	123 nM	27 nM	20 nM	Nc1nccc(-c2c(-c3ccc(F)cc3)ncn2C2CCN(Cc3ccon3)CC2)n1 [PF-5006739, reference compound]				
50 nM	13 nM	30 nM	12 nM	19 nM	CC1(C)CN(c2ccc3nc(-c4ccc(F)cc4)c(-c4ccncc4)n3n2)CCN1 [Compound A]				

Compound	EC50 (DUX4 [1]; [3])	IC50 (p38)	IC50 (CK1 α)	IC50 (CK1 ε)	IC50 (CK1 δ)	effect on DUX4 expression (DUX4 [1]; irrespective of treatment time (15 h or 72 h))	expression of DUX4 (DUX4 [2])	pancreatic tumor cell growth (pancreatic tumor cell)	EC50 (DUX4 [1]; 15 h)
Fc1cccc(-n2cnc3c(NCc4nc5ccc(F)c(F)c5[nH]4)nc(N4CCOCC4)nc32)c1 [SR-3029, reference compound]		> 10000 nM	> 10000 nM						50 nM
CN1Cc2nccc(-c3cn(C)nc3-c3ccc(F)cc3)c2C1=O [Compound E]		1110 nM	592 nM						1890 nM
